Experimental data as given in patent US8859584B2, “TRPV1 antagonists” (AbbVie Inc., priority 2011, dated 2014).

What was measured:
human TRPV1 [1] = biological target: T1, human TRPV1 (Homo sapiens, UniProt Q8NER1); test: Capsaicin Activation Assay (FLIPR intracellular Ca2+, recombinant HEK293 cells); format: cell-based; conditions: recombinant HEK293 cells expressing hTRPV1; 50 nM capsaicin; read-out: human TRPV1 capsaicin IC50
T1 construct: expressed in transfected cells
Experimental: (i) Capsaicin Activation Assay
Dulbecco's modified Eagle medium (DMEM) (with 4.5 mg/mL glucose) and fetal bovine serum were obtained from Hyclone Laboratories, Inc. (Logan, Utah). Dulbecco's phosphate-buffered saline (DPBS) (with 1 mg/mL glucose and 3.6 mg/l Na pyruvate, without phenol red), L-glutamine, hygromycin B, and Lipofectamine® were obtained from Life Technologies (Grand Island, N.Y.). G418 sulfate was obtained from Calbiochem-Novabiochem Corp. (San Diego, Calif.). Capsaicin (8-methyl-N-vanillyl-6-nonenamide) was obtained from Sigma-Aldrich, Co. (St. Louis, Mo.). Fluo-4 AM (N-[4-[6-[(acetyloxy)-methoxy]-2,7-difluoro-3-oxo-3H-xanthen-9-yl]-2-[2-[2-[bis[2-[(acetyloxy)methoxy]-2-oxyethyl]amino]-5-methylphenoxy]ethoxy]phenyl]-N-[2-[(acetyloxy)methoxy]-2-oxyethyl]-glycine, (acetyloxy)methyl ester) was purchased from Molecular Probes (Eugene, Oreg.).
(§1) Expression plasmids encoding the hTRPV1 cDNA were transfected into HEK293 cells using Lipofectamine®. Forty-eight hours after transfection, the neomycin-resistant cells were selected with growth medium containing 800 μg/mL Geneticin (Life Technologies, formerly Gibco BRL). Surviving individual colonies were isolated and screened for TRPV1 activity. Cells expressing recombinant TRPV1 were maintained at 37° C. in DMEM containing 4 mM L-glutamine, 300 μg/mL G418 (Calbiochem) and 10% fetal bovine serum under a humidified 5% CO2 atmosphere.
The functional activity of compounds at the TRPV1 receptor was determined by measurement of intracellular Ca^2+ levels ([Ca^2+]i) using the Fluorescence Imaging Plate Reader (FLIPR)TETRA®. All compounds were tested over a 12-point one-third-log concentration range. Compound stocks, 10 mM, were prepared in DMSO, and diluted serially across a 384-well plate using a Bravo BenchCel workstation (Agilent Technologies, Santa Clara, Calif.). A stock concentration of capsaicin (10 mM) was made in DMSO, and diluted in DPBS to a final concentration of 200 nM (4×). On the day prior to the experiment, the recombinant HEK293 cells expressing human TRPV1 (hTRPV1) were removed from tissue culture flasks and plated in growth medium into black-walled clear-bottom 384-well Biocoat™ poly-D-lysine assay plates (BD Biosciences, Bedford, Mass.) using a Multidrop® dispenser (ThermoScientific, Waltham, Mass.). […] The plated cells were incubated for 90-120 minutes in the dark at room temperature and then test compound was added to each well. Three minutes later, 200 nM capsaicin (4×) solution was added to each well in an amount sufficient to provide a final assay volume of 80 μL and capsaicin concentration of 50 nM. Fluorescence readings were made at 1 to 5 second intervals over the course of the experimental run. The peak increase in relative fluorescence units (minus baseline) was calculated, and expressed as a percentage of the 50 nM capsaicin (control) response.

human TRPV1 [2] = biological target: T1, human TRPV1; test: Acid Activation Assay (pH 5.0, FLIPR intracellular Ca2+, recombinant HEK293 cells); format: cell-based; conditions: percentage of maximal pH 5.0-induced response remaining; HEK293 hTRPV1; max concentration 37.5 μM
Experimental: (ii) Acid Activation Assay
Dulbecco's modified Eagle's medium (DMEM) with 4.5 mg/mL D-glucose, fetal bovine serum, L-glutamine, and 2-morpholinoethanesulfonic acid (MES) were purchased from Sigma-Aldrich Co. (St. Louis, Mo.). […] The FLIPR® Calcium 4 assay kit was purchased from Molecular Devices (Sunnyvale, Calif.).
as §1
The functional activity of compounds at the TRPV1 receptor was determined by measurement of intracellular Ca^2+ levels ([Ca^2+]i) using the Fluorescence Imaging Plate Reader (FLIPR)TETRA®. […] Compound stocks, 10 mM, were prepared in DMSO, and diluted serially across a 384-well plate using a Bravo BenchCel workstation (Agilent Technologies, Santa Clara, Calif.). On the day prior to the experiment, the recombinant HEK293 cells expressing human TRPV1 (hTRPV1) were removed from tissue culture flasks and plated in growth medium into black-walled clear-bottom 384-well Biocoat™ poly-D-lysine assay plates (BD Biosciences, Bedford, Mass.) using a Multidrop® dispenser (ThermoScientific, Waltham, Mass.). […] The plated cells were incubated for 90-120 min in the dark at 25° C. The test compounds dissolved in DMSO were then added to the plates using an Agilent Bravo workstation (Agilent Technologies Inc., Santa Clara, Calif.). Three minutes later, a pH 5.0 solution was added to each well. Reagents were delivered at a rate of 40 μL/sec, and the final assay volume was 80 μL. Acidic pH solutions were prepared by titration of DPBS/MES with 1 N HCl. The intensity of the fluorescence was captured and digitally transferred to an interfaced PC. The maximum peak measured for the concentration range tested was used to calculate the corresponding peak increase in fluorescence over baseline (relative fluorescence units) which was expressed as the percentage (max % remain) of the maximal pH 5.0-induced response.

T1 sequence (Q8NER1 whole entry): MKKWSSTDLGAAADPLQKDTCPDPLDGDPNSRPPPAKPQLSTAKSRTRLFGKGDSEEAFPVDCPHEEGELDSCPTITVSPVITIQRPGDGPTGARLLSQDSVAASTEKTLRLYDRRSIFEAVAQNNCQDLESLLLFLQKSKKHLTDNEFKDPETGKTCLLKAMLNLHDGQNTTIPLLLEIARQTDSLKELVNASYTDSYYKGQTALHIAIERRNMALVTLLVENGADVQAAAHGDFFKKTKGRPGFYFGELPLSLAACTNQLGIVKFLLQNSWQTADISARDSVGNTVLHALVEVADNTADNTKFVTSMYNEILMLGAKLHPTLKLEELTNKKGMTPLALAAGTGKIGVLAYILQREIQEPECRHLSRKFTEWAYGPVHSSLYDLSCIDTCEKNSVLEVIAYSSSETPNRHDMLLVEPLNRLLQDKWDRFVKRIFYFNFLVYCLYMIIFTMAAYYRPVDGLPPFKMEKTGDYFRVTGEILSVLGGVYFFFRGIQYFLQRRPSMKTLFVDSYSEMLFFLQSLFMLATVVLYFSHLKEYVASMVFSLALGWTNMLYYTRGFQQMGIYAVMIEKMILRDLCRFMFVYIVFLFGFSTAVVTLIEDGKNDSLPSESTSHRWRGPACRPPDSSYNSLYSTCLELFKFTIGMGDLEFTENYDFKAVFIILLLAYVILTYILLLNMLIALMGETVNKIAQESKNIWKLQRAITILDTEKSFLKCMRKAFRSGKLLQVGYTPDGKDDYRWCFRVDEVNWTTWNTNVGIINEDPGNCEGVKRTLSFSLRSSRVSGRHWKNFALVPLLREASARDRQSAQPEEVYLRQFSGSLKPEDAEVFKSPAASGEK

| SMILES | IC50 (human TRPV1 [1]) [nM] | human TRPV1 H+ (max % remain) (human TRPV1 [2]) [%] |
| --- | --- | --- |
| CC1(C)C[C@@H](NC(=O)Nc2ccc(F)c3c2C[C@H](O)C3)c2ccccc2O1 [Example 145, 1-[(4R)-2,2-dimethyl-3,4-dihydro-2H-chromen-4-yl]-3-[(2S)-7-fluoro-2-hydroxy-2,3-dihydro-1H-inden-4-yl]urea] | 3200 | 7 |
| CC1(C)C[C@@H](NC(=O)Nc2ccc(F)c3c2C[C@H](O)C3)c2ccc(F)c(Cl)c2O1 [Example 147, 1-[(4R)-8-chloro-7-fluoro-2,2-dimethyl-3,4-dihydro-2H-chromen-4-yl]-3-[(2S)-7-fluoro-2-hydroxy-2,3-dihydro-1H-inden-4-yl]urea] | 440 | 2 |
| O=C(Nc1cccc2c1CC(O)C2)NC1CC(c2ccc(F)cc2)Oc2ccccc21 (stereo not drawn) [Example 119, 1-[2-(4-fluorophenyl)-3,4-dihydro-2H-chromen-4-yl]-3-(2-hydroxy-2,3-dihydro-1H-inden-4-yl)urea] | 430 | 72 |
| O=C(Nc1cccc2c1CC(O)C2)NC1c2ccccc2CC1Cc1ccc(Cl)c(Cl)c1 (stereo not drawn) [Example 124, 1-[2-(3,4-dichlorobenzyl)-2,3-dihydro-1H-inden-1-yl]-3-(2-hydroxy-2,3-dihydro-1H-inden-4-yl)urea] | > 38000 | 63 |
| O=C(Nc1cccc2c1C[C@H](O)C2)N[C@@H]1CCc2cc(F)ccc21 [Example 92, 1-[(1R)-5-fluoro-2,3-dihydro-1H-inden-1-yl]-3-[(2R)-2-hydroxy-2,3-dihydro-1H-inden-4-yl]urea] | 270 | 60 |
| O=C(NCC1COc2ccc(F)cc2C1)Nc1cccc2c1C[C@H](O)C2 (stereo partly drawn) [Example 28, 1-[(6-fluoro-3,4-dihydro-2H-chromen-3-yl)methyl]-3-[(2R)-2-hydroxy-2,3-dihydro-1H-inden-4-yl]urea] | 290 | 58 |
| CC1(C)C[C@@H](NC(=O)Nc2cccc3c2C[C@H](O)C3)c2ccc(OC(F)(F)F)cc2O1 [Example 30, 1-[(4R)-2,2-dimethyl-7-(trifluoromethoxy)-3,4-dihydro-2H-chromen-4-yl]-3-[(2R)-2-hydroxy-2,3-dihydro-1H-inden-4-yl]urea] | 42 | 39 |
| CC1(C)C[C@@H](NC(=O)Nc2ccc(F)c3c2C[C@H](O)C3)c2ccc(F)c(F)c2O1 [Example 153, 1-[(4R)-7,8-difluoro-2,2-dimethyl-3,4-dihydro-2H-chromen-4-yl]-3-[(2S)-7-fluoro-2-hydroxy-2,3-dihydro-1H-inden-4-yl]urea] | 760 | 2 |
| CC1(C)C[C@@H](NC(=O)Nc2ccc(F)c3c2C[C@H](O)C3)c2cccc(F)c2O1 [Example 136, 1-[(4R)-8-fluoro-2,2-dimethyl-3,4-dihydro-2H-chromen-4-yl]-3-[(2S)-7-fluoro-2-hydroxy-2,3-dihydro-1H-inden-4-yl]urea] | 2800 | 5 |
| O=C(Nc1cccc2c1CC(O)C2)NC1c2ccccc2OCC1Cc1ccc(Cl)c(Cl)c1 (stereo not drawn) [Example 112, 1-[3-(3,4-dichlorobenzyl)-3,4-dihydro-2H-chromen-4-yl]-3-(2-hydroxy-2,3-dihydro-1H-inden-4-yl)urea] | 980 | 77 |
| CCC1(CC)C[C@@H](NC(=O)Nc2cccc3c2C[C@H](O)C3)c2ccccc2O1 [Example 49, 1-[(4R)-2,2-diethyl-3,4-dihydro-2H-chromen-4-yl]-3-[(2R)-2-hydroxy-2,3-dihydro-1H-inden-4-yl]urea] | 22 | 75 |
| CC1(C)C[C@@H](NC(=O)Nc2cccc3c2C[C@H](O)C3)c2ccc(C(F)(F)F)nc2O1 [Example 105, 1-[(4R)-2,2-dimethyl-7-(trifluoromethyl)-3,4-dihydro-2H-pyrano[2,3-b]pyridin-4-yl]-3-[(2R)-2-hydroxy-2,3-dihydro-1H-inden-4-yl]urea] | 150 | 39 |
